Measurements from PMC8150775, “Repositioning Azelnidipine as a Dual Inhibitor Targeting CD47/SIRPα and TIGIT/PVR Pathways for Cancer Immuno-Therapy” (Biomolecules, 2021).
pIC50: −log10 of the molar value.

What was measured:
human CD47/SIRPα = molecular target: T1, human CD47/SIRPα (Homo sapiens, UniProt P78324); experiment: Blocking assay, human SIRPα protein binding to CHOK1-hCD47 cells; settings: concentration gradient; read-out: IC50, blocking human CD47/SIRPα (hSirpα binding)
T1 construct: purchased ACRO Biosystem SIA-H5251; host or cells: soluble protein purchased; CD47 on CHOK1-hCD47 cells (lenti-viral transfection)
Description: The abilities of small molecule inhibitors (SMIs) (purchased from TargetMol, Shanghai, China) to block the binding of SIRPα protein to CHOK1-CD47 cells or PVR protein to CHOK1-TIGIT cells were determined by flow cytometry, as previously reported. The SMIs at indicated concentrations were incubated with Fc-tagged SIRPα or PVR protein for 30 min at 4°C, followed by incubating with the indicated cells for another 30 min. Human SIRPα protein (SIA-H5251, ACRO Biosystem, Beijing, China), mouse SIRPα protein (SIA-M5258, ACRO Biosystem, Beijing, China), human PVR protein (CD5-H82F6, ACRO Biosystem, Beijing, China), and mouse PVR protein (50259-M03H, Sino Biological, Beijing, China) were used. PE-conjugated anti-human IgG antibody was used to detect the Fc protein bind to cells. Cells incubated with the Fc proteins and anti-human IgG antibody without the SMIs serve as the positive control. The mean fluorescent intensity (MFI) of each sample was detected and recorded by a flow cytometry. The blocking efficacy of the SMIs was calculated as the equation: (MFI of the positive control-MFI of the SMI)/MFI of the positive control × 100%.

B16-OVA cells = experiment: Phagocytosis assay, BMDM co-cultured with GFP+ B16-OVA cells; type: cell-based, mouse; settings: 20 μM, 4 h
Description: Bone marrow-derived macrophage (BMDM) cells were isolated from C57BL/6 or BALB/c mice and induced with 20 ng/mL of GM-CSF (Peprotech, Rocky Hill, CT, USA) for 7 days. Meanwhile, the medium was replaced with fresh medium containing the cytokine and the adherent cells were harvested. Phagocytosis assays were performed by a co-culture of the BMDM macrophages with carboxyfluorescein succinimidyl ester-labeled (CFSE^+) or GFP^+ tumor cells at a ratio of 1:4 in a serum-free medium at 37 °C for 4 h, in low-attachment 96-well tissue culture plates (Corning, New York, NY, USA). The cells were harvested and the macrophages were identified by a flow cytometry using anti-F4/80 antibody (eBioscience, San Diego, CA, USA). Then, 7-AAD (eBioscience) was used to exclude the dead cells. The effects of azelnidipine (20 μM) on phagocytosis by BMDM cells were tested, and the anti-CD47 antibody (clone: miap301) were used as the positive control. Phagocytosis rate was determined with the formulation: F4/80^+GFP^+ or F4/80^+CFSE^+ cells/ Total F4/80^+ cells.
Figure 4 Azelnidipine enhances macrophage mediated phagocytosis of the tumor cells. The effects of the azelnidipine on the phagocytosis of the macrophages were tested by a co-culture of the tumor cells and BMDM cell derived from C57BL/6 or BALB/c mice. […] GFP^+ or CFSE^+ BMDMs were detected by a flow cytometry. […]

T1 sequence (P78324 31-370 limits assumed): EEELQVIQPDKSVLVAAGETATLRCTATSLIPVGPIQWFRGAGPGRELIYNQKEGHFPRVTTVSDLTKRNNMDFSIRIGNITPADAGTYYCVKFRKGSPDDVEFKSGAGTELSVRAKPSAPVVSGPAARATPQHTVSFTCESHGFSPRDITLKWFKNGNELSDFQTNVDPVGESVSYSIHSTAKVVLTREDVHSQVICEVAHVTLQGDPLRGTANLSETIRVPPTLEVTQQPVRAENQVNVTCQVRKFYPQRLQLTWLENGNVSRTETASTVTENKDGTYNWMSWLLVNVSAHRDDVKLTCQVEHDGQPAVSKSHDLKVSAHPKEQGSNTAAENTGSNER

CC1=C(C(=O)OC(C)C)C(c2cccc([N+](=O)[O-])c2)C(C(=O)OC2CN(C(c3ccccc3)c3ccccc3)C2)=C(N)N1 (centres unmarked) [Azelnidipine]
pIC50 (human CD47/SIRPα): ~4.44 | phagocytosis of B16-OVA cells by BMDM cells (B16-OVA cells): significantly enhance
